Experimental data as given in patent US11186606B2, “Compositions and methods of modulating the immune response by activating alpha protein kinase 1” (Shanghai Yao Yuan Biotechnology Co., Ltd., priority 2017, dated 2021).

Experiments:
[1] = system: bovine alkaline phosphatase; experiment: Incubation of H1b-ADP with bovine alkaline phosphatase; type: biochemical
Description: (§1) FBS contains 110-352 U/ml alkaline phosphatase.

ALPK1 = experiment: IL8 secretion in HEK293 cells (IL8 ELISA) as indicator of ALPK1 activation; conditions: added to the FBS-containing medium, HEK293 cells, IL8 secretion
Description: We pre-mixed H1b-ADP with phosphatase inhibitor sodium orthovanadate (Na3VO4) before incubation with FBS.
In these experiments, serial dilutions of the compounds were added to the tissue culture media of HEK293 cells with (FIG. 27B, FIG. 28B, FIG. 29B) or without (FIG. 26, FIG. 27A, FIG. 28A, FIG. 29A) 10% FBS, as indicated in the figures. After 4 hours, the cell supernatant was collected and analyzed for IL8 concentration using IL8 ELISA (BD) as an indicator of ALPK1 activation.

[2] = system: phosphatase activity in the serum; experiment: Incubation of H1b-ADP with FBS, product analysed by LC-MS; type: in vitro ADME, bovine; conditions: 1 mM, pre-mixed with H1b-ADP before incubation with FBS
Description: as §1

SMILES: [Na+].[Na+].[Na+].[O]=[V]([O-])([O-])[O-] [Na3VO4, sodium orthovanadate]
- phosphatase activity (H1b-ADP hydrolysis) [1]: blocked by increasing amount of Na3VO4
- restoration of H1b-ADP's activity in the cell based assay (ALPK1): could restore H1b-ADP's activity
- H1b-ADP hydrolysis [2]: effectively inhibited H1b-ADP hydrolysis
